# Measurements published in patent US20220347085A1, “REPELLENT COMPOSITION AND USES” (Université Bourgogne, priority 2019, published 2022).
# Tested on: Drosophila suzukii
# Test: Anesthesia test, Drosophila suzukii
# Format: in vivo
# Conditions: female flies
# Description: The devices used were similar to the devices for studying the courtship (example 1 above), except for the volume of the space into which the files were introduced, which was 45.24 or 22.62 cm^3. 9 discs of filter paper (Whatman, filter paper 42), each soaked in 10 μl of a composition comprising butyric acid and/or propionic acid and/or a derivative of propionic acid diluted in paraffin oil were deposited in the device. The different compositions used comprised, respectively, 2% propionic acid or 2% butyric acid or 5% ethyl propanoate or 10% ethyl propanoate or 30% ethyl propanoate. For each composition, the number of flies was, respectively, 30 and 24 males, 30 and 11 females for Drosophila melanogaster, and 24, 16 and 4 males, 28, 26, 6, 5 and 4 females for Drosophila suzukii. In order to avoid any contact of the flies with the soaked disks of paper, a gauze (netting) was arranged above said papers. The drosophilae could move freely on said gauze. The quantity of compound, butyric acid or propionic acid, or of ethyl propanoate (odor) volatilized in the behavior chamber was equivalent to that of the device used for the courtship. Likewise, the flies were never in direct contact with the composition (no taste perception), only with the volatile particles (olfactory perception). The flies tested were introduced simultaneously, by group, into the enclosure. Their behavior was filed for 10 minutes, and a time required for leading to anesthesia was calculated over this period, depending on the concentration of butyric acid or propionic acid or ethyl propanoate used. The flies were considered anesthetized when they stopped moving and fell on their side.
compound,measurement,setting,value
CCOC(=O)CC [ethyl propanoate],time elapsed leading to anesthesia,5% in paraffin oil,approximately 6 minutes
same,time elapsed leading to anesthesia,10% in paraffin oil,approximately 4 minutes
same,time elapsed leading to anesthesia,30% in paraffin oil,2 to 3 min
